Measured values: BindingDB's records for doi:10.1021/jm050499d (University of Zürich, 2005)

Test: Predicted binding affinity for beta secretase by linear interaction energy continuum electrostatics

Ki: 9.4 µM
Structure (SMILES): COCCCNC(=O)c1cc(NC(=O)Nc2cc(C(F)(F)F)cc(C(F)(F)F)c2)ccc1N(C)C [5-[3-(3,5-Bis-trifluoromethyl-phenyl)-ureido]-2-dimethylamino-N-(3-methoxy-propyl)-benzamide]
